pIC50: −log10 of the molar value.
Assays:
[1] = system: WT-MEF cells; assay: RT-qPCR of Ifnβ, Cxcl10 and Isg15 mRNA in WT-MEF stimulated with DMXAA; assay type: cell-based, murine; conditions: WT-MEF under DMXAA stimulation (200 μM, 2 h) in combination with CDN-1163 (FIG. 4A)
Procedure: WT-MEF cells were cultured 24 h prior 2h stimulation with DMXAA (200 μM) in combination or not with CPA (A-C) or thapsigargin (D-E). Graphs present fold increase Ifnβ, Cxcl10 and Isg15 mRNA levels, as compared to unstimulated cells. Graphs present mean value from duplicates.
WT-MEF cells were cultured 24 h prior 2 h stimulation with DMXAA (200 μM) in combination or not with CDN-1163 (A-C). Graphs present fold increase […], Cxcl10 and Isg15 mRNA levels, as compared to unstimulated cells. Graphs present mean value from duplicates.
(§1) Wild type murine embryonic fibroblasts (WT-MEF) and MEF-Trex^−/−, were maintained in Dulbecco's modified Eagle's medium (DMEM) supplemented with 10% fetal bovine serum (FBS), 1% penicillin/streptomycin and 1% glutamine.
(§2) RNA was extracted using Trizol (Invitrogen) and treated with TURBO DNase (Ambion) according to manufacturer's protocols. Reverse transcription (SuperScript IV reverse transcriptase, Invitrogen) and qPCR using specific primers were performed using SYBR Green Master Mix (Takara) and LightCycler 480 cycler (Roche). mRNA levels were normalized to HSP90 mRNA levels. […]
To this aim, WT-MEFs were treated with the CDN-1163 SERCA2 agonist, and interferon response gene levels were assessed (FIG. 4).

[2] = system: Trex1 KO MEFs; assay: RT-qPCR of Ifnβ, Cxcl10 and Isg15 mRNA in Trex1 KO MEF (model of chronic STING activation); assay type: cell-based, murine; conditions: Trex1-deficient MEF, 2 h treatment (FIG. 2)
Procedure: MEF^Trexl−/− cells were treated or not with CPA (A-C) or thapisgargin (D-E) for 2 h. Graphs present fold increase Ifnβ, Cxcl10 and Isg15 mRNA levels, as compared to unstimulated cells. Graphs present mean value from duplicates (A-C) or average of 2 independent experiments (D-F). Error bars: standard deviation.
as §1
RNA was extracted using Trizol (Invitrogen) and treated with TURBO DNase (Ambion) according to manufacturer's protocols. Reverse transcription (SuperScript IV reverse transcriptase, Invitrogen) and qPCR using specific primers were performed using SYBR Green Master Mix (Takara) and LightCycler 480 cycler (Roche). mRNA levels were normalized to HSP90 mRNA levels.
WT-MEF stimulated or not with DMXAA, a murine STING ligand which triggers STING-dependent inflammatory responses (FIG. 1); and Trex I KO MEF which is a model of chronic STING activation (FIG. 2).
WT-MEF or Trex I KO MEF were treated for 2 h with SERCA2 inhibitors thapsigargin (TA) or CPA.

[3] = system: mouse embryonic fibroblasts (MEFs); assay: RT-qPCR of Ifnβ mRNA in MEFs stimulated with ADUS-100 with or without thapsigargin; assay type: cell-based; conditions: MEF, 6 h, TA 12.5 nM or 6.25 nM in combination with ADU-S100 5 μM (FIG. 6A)
Procedure: (§3) FIG. 6: Inhibition of SERCA2 (ATP2A2) in combination with STING agonist increases inflammatory responses in mouse embryonic fibroblasts (MEFs). • (A) MEFs were cultured for 24 h prior to 6 h stimulation with ADUS-100 (5 μM) in combination or not with 12.5 nM or 6.25 nM of thapsigargin (TA). Graphs present fold increase lfnβ mRNA levels, as compared to unstimulated cells. • (B) MEFs were cultured for 24 h prior to 6 h stimulation with ADUS-100 (5 μM) in combination or not with 12.5 nM or 6.25 nM of TA. Graphs present viability level, as compared to unstimulated cells.
(§4) Murine embryonic fibroblasts (MEF) and murine pancreatic cancer cell lines (KPC and Panc02) were maintained in Dulbecco's modified Eagle's medium (DMEM) supplemented with 10% fetal bovine serum (FBS), 1% penicillin/streptomycin and 1% glutamine.
(§5) Cells were treated during 6 h with ADUS-100 (5 μM) in presence or not of thapsigargin (TA) at 12.5 nM or 6.25 nM in complete medium.
as §2

[4] = system: KPC murine pancreatic cell line; assay: RT-qPCR of Cxcl10 mRNA in KPC cells stimulated with ADUS-100 with or without thapsigargin; assay type: cell-based; conditions: 6 h, TA 12.5 nM or 6.25 nM in combination with ADU-S100 5 μM (FIG. 7A)
Procedure: (§6) FIG. 7: Inhibition of SERCA2 (ATP2A2) in combination of STING agonist increases inflammatory responses in cancer cell lines. • (A) The KPC murine pancreatic cell line was cultured 24 h prior to 6 h stimulation with ADUS-100 (5 μM) in combination or not with 12.5 nM or 6.25 nM TA. Graphs present fold increase Cxcl10 mRNA levels, an interferon responding gene, as compared to unstimulated cells. • (B) KPC cells were cultured 24 h prior 6 h stimulation with ADUS-100 (5 μM) in combination or not with 12.5 nM or 6.25 nM TA. Graphs present viability level, as compared to unstimulated cells. • (C) The Panco2 murine pancreatic cell line was cultured 24 h prior to 6 h stimulation with ADUS-100 (5 μM) in combination or not with 12.5 nM or 6.25 nM TA. Graphs present fold increase Cxcl10 mRNA levels, an interferon responding gene, as compared to unstimulated cells. • (D) Panco2 cells were cultured 24 h prior to 6 h stimulation with ADUS-100 (5 μM) in combination or not with 12.5 nM or 6.25 nM TA. Graphs present viability level, as compared to unstimulated cells.
(§7) Murine embryonic fibroblasts (MEF) and murine pancreatic cancer cell lines (KPC and Panc02) were maintained in Dulbecco's modified Eagle's medium (DMEM) supplemented with 10% fetal bovine serum (FBS), 1% penicillin/streptomycin and 1% glutamine. […]

[5] = system: Panc02 murine pancreatic cell line; assay: RT-qPCR of Cxcl10 mRNA in Panc02 cells stimulated with ADUS-100 with or without thapsigargin; assay type: cell-based; conditions: Panc02, 6 h, TA 12.5 nM or 6.25 nM in combination with ADU-S100 5 μM (FIG. 7C)
Procedure: as §6, §7

[6] = system: mouse embryonic fibroblasts (MEFs); assay: CellTiter-Glo Luminescent Cell Viability Assay in MEFs; assay type: cell-based; conditions: MEF; ADUS-100 5 μM, TA 12.5 nM or 6.25 nM, single or combined; viability 24 h after treatment (FIG. 6B)
Procedure: as §3, §4, §5
The CellTiter-Glo® Luminescent Cell Viability Assay was used to determine the number of viable cells 24 h after treatment.

[7] = system: KPC cells; assay: CellTiter-Glo Luminescent Cell Viability Assay in KPC cells; assay type: cell-based, murine; conditions: ADUS-100 5 μM, TA 12.5 nM or 6.25 nM, single or combined, viability 24 h after treatment (FIG. 7B)
Procedure: as §6, §7

[8] = system: Panc02 cells; assay: CellTiter-Glo Luminescent Cell Viability Assay in Panc02 cells; assay type: cell-based, murine; conditions: ADUS-100 5 μM, TA 12.5 nM or 6.25 nM, single or combined, viability 24 h after treatment (FIG. 7D)
Procedure: as §6, §7

[9] = target: SERCA2 (Homo sapiens, UniProt P16615); conditions: read-out: IC50 in vitro for SERCA2 (for calcium entry); cited from earlier work
[10] = system: mice; assay: In vivo toxicity, subcutaneous injection, macroscopic observation of skin at the injection site; conditions: 3 times one injection every 3 day, TA 50 nM, ADUS-100 5 μM, or both (Combi), data not shown

Chain of SERCA2 (P16615 whole entry): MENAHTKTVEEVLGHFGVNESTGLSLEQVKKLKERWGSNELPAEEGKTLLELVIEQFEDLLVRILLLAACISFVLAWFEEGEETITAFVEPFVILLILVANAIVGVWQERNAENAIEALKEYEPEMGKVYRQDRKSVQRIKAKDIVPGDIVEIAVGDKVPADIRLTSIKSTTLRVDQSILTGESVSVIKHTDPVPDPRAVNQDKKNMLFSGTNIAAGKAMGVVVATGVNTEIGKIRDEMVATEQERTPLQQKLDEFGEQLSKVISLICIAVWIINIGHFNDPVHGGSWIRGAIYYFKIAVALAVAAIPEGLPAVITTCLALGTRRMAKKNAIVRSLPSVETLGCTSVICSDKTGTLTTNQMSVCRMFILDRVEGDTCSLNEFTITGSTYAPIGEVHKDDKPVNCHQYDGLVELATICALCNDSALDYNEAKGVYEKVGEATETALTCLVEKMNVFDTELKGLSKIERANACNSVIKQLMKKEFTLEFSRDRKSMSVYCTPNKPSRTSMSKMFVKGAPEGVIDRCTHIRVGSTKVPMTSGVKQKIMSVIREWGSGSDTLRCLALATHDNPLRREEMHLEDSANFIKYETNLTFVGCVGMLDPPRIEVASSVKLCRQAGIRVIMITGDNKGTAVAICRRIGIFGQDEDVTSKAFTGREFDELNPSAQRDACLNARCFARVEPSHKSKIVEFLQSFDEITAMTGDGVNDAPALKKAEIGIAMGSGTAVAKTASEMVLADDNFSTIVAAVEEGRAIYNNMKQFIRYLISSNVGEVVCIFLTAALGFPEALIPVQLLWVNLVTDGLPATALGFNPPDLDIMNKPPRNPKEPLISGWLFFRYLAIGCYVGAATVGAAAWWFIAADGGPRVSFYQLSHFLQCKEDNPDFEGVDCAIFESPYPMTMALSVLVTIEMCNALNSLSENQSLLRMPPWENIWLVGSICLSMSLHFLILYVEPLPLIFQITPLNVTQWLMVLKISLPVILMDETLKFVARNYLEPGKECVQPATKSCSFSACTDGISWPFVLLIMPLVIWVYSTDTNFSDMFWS

Structure (SMILES)	IFN-β gene expression [1]	CXCL10 mRNA levels [2]	IFN-β mRNA levels [2]	ISG15 mRNA levels [2]	induced inflammation marker Interferon-β (IFN-β) [3]	induced inflammation marker CXCL10 cytokine [4]	induced inflammation marker CXCL10 cytokine [5]	cell toxicity (viability level) [6]	cell toxicity (viability level) [7]	cell toxicity (viability level) [8]	pIC50 [9]	macroscopic observation of skin at the injection site (signs of toxicity) [10]
Cc1ccc2cccc(NC(=O)c3ccc(OC(C)C)cc3)c2n1 [CDN-1163, N-(2-methylquinolin-8-yl)-4-propan-2-yloxybenzamide]	inhibits											
C/C=C(/C)C(=O)O[C@H]1C(C)=C2[C@H]([C@@H]1OC(=O)CCCCCCC)[C@@](C)(OC(C)=O)C[C@H](OC(=O)CCC)[C@@]1(O)[C@H]2OC(=O)[C@@]1(C)O [Thapsigargin, (3S,3aR,4S,6S,6aR,7S,8S,9bS)-6-(Acetyloxy)-4-(butyryloxy)-3,3a-dihydroxy-3,6,9-trimethyl-8-{[(2Z)-2-methylbut-2-enoyl]oxy}-2-oxo-2,3,3a,4,5,6,6a,7,8,9b-decahydroazuleno[4,5-b]furan-7-yl octanoate]		increase	increase	increase	potentiation	potentiation	potentiation	low cell toxicity	low cell toxicity	low cell toxicity	> 7.82	did not display signs of toxicity
Nc1ncnc2c1ncn2[C@@H]1O[C@@H]2COP(=O)([S-])O[C@@H]3[C@H](O)[C@@H](COP([O-])(=S)O[C@H]2[C@H]1O)O[C@H]3n1cnc2c(N)ncnc21.[Na+].[Na+] (some centres unmarked) [ADU-S100]								low cell toxicity	low cell toxicity	low cell toxicity		did not display signs of toxicity
CC(=O)C1=C(O)[C@@H]2[C@H]3c4c[nH]c5cccc(c45)C[C@H]3C(C)(C)N2C1=O [CPA, (6aR,11aS,11bR)-10-Acetyl-11-hydroxy-7,7-dimethyl-2,6,6a,7,11a,11b-hexahydro-9H-pyrrolo[1′,2′:2,3]isoindolo[4,5,6-cd]indol-9-one]		increase	increase	increase							> 5.60	

Reference: patent US20240139219A1, “COMBINATION OF A SERCA2 INHIBITOR AND A STING ACTIVATOR FOR USE IN TREATING AND/OR PREVENTING CANCER” (Centre national de la recherche scientifique, priority 2021, published 2024)
